Assay results published in patent publication US20260265189A1, “NOVEL COMPOUND, AND PHARMACEUTICAL COMPOSITION COMPRISING SAME AS ACTIVE INGREDIENT” (SAPIENSBIO INC., priority 2022, published 2026).

Tested on: α-SMA expression in MRC5 cells
Test: inhibition of α-SMA expression in MRC5 cells, image screening method
Format: cell-based
Conditions: Homo sapiens; MRC5, compound 10 μM, TGF-β1 5 ng/mL, 72 hours, relative to TGF-β1 alone; read-out: Inhibitory activity (α-SMA expression inhibition)
Experimental: The ability of the compounds according to the present invention to inhibit the expression of α-SMA, which is a biomarker for pulmonary fibrosis, was evaluated by an image screening method. MRC5 cells were treated with the compound (10 μM) or DMSO under the condition of TGF-31 (5 ng/mL). 72 hours later, the cells were fixed with a 4% formaldehyde solution, treated with a 0.1% Triton-x100 solution, and treated with a 1% BSA solution to mask non-specific binding caused by antibodies. Anti-α-SMA-FITC (Sigma Aldrich) and anti-GAPDH (Cell Signaling Technology) were used as primary antibodies, and anti-mouse-TRITC was used as a secondary antibody. Imaging and analysis of the results were performed using Cytation5_Gen5_Version 3.12.08 (Bio Tek). Relative to the α-SMA expression level when TGF-31 was treated alone, the α-SMA expression level when both the compound and TGF-31 were treated was calculated as the ability of α-SMA expression inhibition of the corresponding compound.

**Q.** For `CC(=O)N[C@H]1CCN(C(=O)N2CCN(c3ccc(F)cc3)c3cc(F)ccc32)C1` [Compound 15, (S)-N-(1-(6-fluoro-4-(4-fluorophenyl)-1,2,3,4-tetrahydroquinoxaline-1-carbonyl)pyrrolidin-3-yl)acetamide], which inhibition at 10 µM is on record?
**A.** The inhibition at 10 µM was 10 to 30%.

**Q.** For `CC(C)CN1CC[C@@H](CNC(=O)N2CCN(c3ccc(F)cc3)c3cc(F)ccc32)C1` [Compound 27, (S)-6-fluoro-4-(4-fluorophenyl)-N-((1-isobutylpyrrolidin-3-yl)methyl)-3,4-dihydroquinoxaline-1(2H)-carboxamide], which inhibition at 10 µM is on record?
**A.** Its inhibition at 10 µM is ≥ 70%.

**Q.** How did the inhibition at 10 µM turn out when `O=C(N[C@@H]1CCNC1)N1CCN(c2ccccc2)c2cc(F)ccc21` [Compound 65, (R)-6-fluoro-4-phenyl-N-(pyrrolidin-3-yl)-3,4-dihydroquinoxaline-1(2H)-carboxamide] was run?
**A.** The inhibition at 10 µM was 30 to 50%.

**Q.** How did the inhibition at 10 µM turn out when `CC(C)N1CC[C@H](NC(=O)N2CCN(c3cnccn3)c3ccccc32)C1` [Compound 81, (S)-N-(1-isopropylpyrrolidin-3-yl)-4-(pyrazin-2-yl)-3,4-dihydroquinoxaline-1(2H)-carboxamide] was run?
**A.** Its inhibition at 10 µM is 10 to 30%.

**Q.** Which inhibition at 10 µM does the source give for `CN1CC[C@@H](NC(=O)N2CCN(c3ccc(F)cc3)c3cc(F)ccc32)C1` [Compound 2, (R)-6-fluoro-4-(4-fluorophenyl)-N-(1-methylpyrrolidin-3-yl)-3,4-dihydroquinoxaline-1(2H)-carboxamide] here?
**A.** The inhibition at 10 µM was ≥ 70%.

**Q.** For `CC(C)CN[C@H]1CCN(C(=O)N2CCN(Cc3ccccn3)c3ccccc32)C1` [Compound 96, (S)-(3-(isobutylamino)pyrrolidin-1-yl)(4-(pyridin-2-ylmethyl)-3,4-dihydroquinoxalin-1(2H)-yl)methanone], which inhibition at 10 µM is on record?
**A.** Its inhibition at 10 µM is 30 to 50%.

**Q.** How did the inhibition at 10 µM turn out when `CN1CCN(C(=O)N2CCN(c3ccccc3Cl)c3ccccc32)CC1` [Compound 68, (4-(2-chlorophenyl)-3,4-dihydroquinoxalin-1(2H)-yl)(4-methylpiperazin-1-yl)methanone] was run?
**A.** The inhibition at 10 µM was 30 to 50%.

**Q.** Which inhibition at 10 µM does the source give for `CC(C)CN1CC(NC(=O)N2CCN(c3ccc(F)cc3)c3cc(F)ccc32)C1` [Compound 43, 6-fluoro-4-(4-fluorophenyl)-N-(1-isobutylazetidin-3-yl)-3,4-dihydroquinoxaline-1(2H)-carboxamide] here?
**A.** Its inhibition at 10 µM is ≥ 70%.

**Q.** How did the inhibition at 10 µM turn out when `O=C(NC[C@H]1CCCN1)N1CCN(c2ccc(F)cc2)c2cc(F)ccc21` [Compound 21, (R)-6-fluoro-4-(4-fluorophenyl)-N-(pyrrolidin-2-ylmethyl)-3,4-dihydroquinoxaline-1(2H)-carboxamide] was run?
**A.** Its inhibition at 10 µM is ≥ 70%.

**Q.** For `CN[C@H]1CCN(C(=O)N2CCN(c3ccc(F)cc3)c3cc(F)ccc32)C1` [Compound 12, (S)-(6-fluoro-4-(4-fluorophenyl)-3,4-dihydroquinoxalin-1(2H)-yl)(3-(methylamino)pyrrolidin-1-yl)methanone], which inhibition at 10 µM is on record?
**A.** The inhibition at 10 µM was 30 to 50%.

**Q.** For `CC(C)CN[C@H]1CCN(C(=O)N2CCN(c3ccc(F)cc3)c3cc(F)ccc32)C1` [Compound 13, (S)-(6-fluoro-4-(4-fluorophenyl)-3,4-dihydroquinoxalin-1(2H)-yl)(3-(isobutylamino)pyrrolidin-1-yl)methanone], which inhibition at 10 µM is on record?
**A.** Its inhibition at 10 µM is ≥ 70%.

**Q.** `CC(C)N1CC[C@H](NC(=O)N2CCN(c3ccccn3)c3ccccc32)C1` [Compound 69, (S)-N-(1-isopropylpyrrolidin-3-yl)-4-(pyridin-2-yl)-3,4-dihydroquinoxaline-1(2H)-carboxamide] was tested. Which inhibition at 10 µM did it give?
**A.** The inhibition at 10 µM was 10 to 30%.

**Q.** How did the inhibition at 10 µM turn out when `CC(C)CN1CC[C@@H](NC(=O)N2CCN(C3CCCCC3)c3ccccc32)C1` [Compound 106, (R)-4-cyclohexyl-N-(1-isobutylpyrrolidin-3-yl)-3,4-dihydroquinoxaline-1(2H)-carboxamide] was run?
**A.** Its inhibition at 10 µM is 30 to 50%.

**Q.** `O=C(N[C@H]1CCNC1)N1CCN(c2ccc(F)cc2)c2cc(F)ccc21` [Compound 8, (S)-6-fluoro-4-(4-fluorophenyl)-N-(pyrrolidin-3-yl)-3,4-dihydroquinoxaline-1(2H)-carboxamide] was tested. Which inhibition at 10 µM did it give?
**A.** The inhibition at 10 µM was ≥ 70%.

**Q.** With `O=C(NC1CNC1)N1CCN(c2ccc(F)cc2)c2cc(F)ccc21` [Compound 41, N-(azetidin-3-yl)-6-fluoro-4-(4-fluorophenyl)-3,4-dihydroquinoxaline-1(2H)-carboxamide] as the compound, how does the inhibition at 10 µM read?
**A.** The inhibition at 10 µM was 30 to 50%.

**Q.** How did the inhibition at 10 µM turn out when `CC(C)N1CCC(CNC(=O)N2CCN(c3ccc(F)cc3)c3cc(F)ccc32)CC1` [Compound 36, 6-fluoro-4-(4-fluorophenyl)-N-((1-isopropylpiperidin-4-yl)methyl)-3,4-dihydroquinoxaline-1(2H)-carboxamide] was run?
**A.** The inhibition at 10 µM was 50 to 70%.

**Q.** How did the inhibition at 10 µM turn out when `CC(C)N1CCC(NC(=O)N2CCN(c3cnccn3)c3ccccc32)CC1` [Compound 83, N-(1-isopropylpiperidin-4-yl)-4-(pyrazin-2-yl)-3,4-dihydroquinoxaline-1(2H)-carboxamide] was run?
**A.** Its inhibition at 10 µM is 10 to 30%.

**Q.** How did the inhibition at 10 µM turn out when `CC(C)N1CC[C@@H](NC(=O)N2CCN(c3ccc(F)cc3)c3cc(F)ccc32)C1` [Compound 3, (R)-6-fluoro-4-(4-fluorophenyl)-N-(1-isopropylpyrrolidin-3-yl)-3,4-dihydroquinoxaline-1(2H)-carboxamide] was run?
**A.** The inhibition at 10 µM was ≥ 70%.

**Q.** How did the inhibition at 10 µM turn out when `N[C@H]1CCN(C(=O)N2CCN(Cc3ccccc3)c3ccccc32)C1` [Compound 85, (S)-(3-aminopyrrolidin-1-yl)(4-benzyl-3,4-dihydroquinoxalin-1(2H)-yl)methanone] was run?
**A.** The inhibition at 10 µM was 30 to 50%.

**Q.** How did the inhibition at 10 µM turn out when `O=C(N1CCCC1)N1CCN(c2ccccc2Cl)c2ccccc21` [Compound 67] was run?
**A.** The inhibition at 10 µM was 30 to 50%.

**Q.** `O=C(NC1CCNCC1)N1CCN(Cc2ccc(F)cc2)c2ccccc21` [Compound 93, 4-(4-fluorobenzyl)-N-(piperidin-4-yl)-3,4-dihydroquinoxaline-1(2H)-carboxamide] was tested. Which inhibition at 10 µM did it give?
**A.** The inhibition at 10 µM was 50 to 70%.

**Q.** With `O=C(N1CCCCC1)N1CCN(c2ccccc2Cl)c2ccccc21` [Compound 66, (4-(2-chlorophenyl)-3,4-dihydroquinoxalin-1(2H)-yl)(piperidin-1-yl)methanone] as the compound, how does the inhibition at 10 µM read?
**A.** The inhibition at 10 µM was 50 to 70%.

**Q.** Which inhibition at 10 µM does the source give for `CS(=O)(=O)N[C@H]1CCN(C(=O)N2CCN(c3ccc(F)cc3)c3cc(F)ccc32)C1` [Compound 16, (S)-N-(1-(6-fluoro-4-(4-fluorophenyl)-1,2,3,4-tetrahydroquinoxaline-1-carbonyl)pyrrolidin-3-yl)methanesulfonamide] here?
**A.** Its inhibition at 10 µM is 10 to 30%.

**Q.** For `N[C@H]1CCN(C(=O)N2CCN(c3ccc(F)cc3)c3cc(F)ccc32)C1` [Compound 11, (S)-(3-aminopyrrolidin-1-yl)(6-fluoro-4-(4-fluorophenyl)-3,4-dihydroquinoxalin-1(2H)-yl)methanone], which inhibition at 10 µM is on record?
**A.** Its inhibition at 10 µM is 30 to 50%.

**Q.** Which inhibition at 10 µM does the source give for `O=C(NCC1CC1)N1CCN(Cc2ccccn2)c2ccccc21` [Compound 102, N-(cyclopropylmethyl)-4-(pyridin-2-ylmethyl)-3,4-dihydroquinoxaline-1(2H)-carboxamide] here?
**A.** The inhibition at 10 µM was 30 to 50%.

**Q.** With `CC(C)N1CC[C@@H](CNC(=O)N2CCN(c3ccc(F)cc3)c3ccccc32)C1` [Compound 59, (S)-4-(4-fluorophenyl)-N-((1-isopropylpyrrolidin-3-yl)methyl)-3,4-dihydroquinoxaline-1(2H)-carboxamide] as the compound, how does the inhibition at 10 µM read?
**A.** The inhibition at 10 µM was 30 to 50%.

**Q.** With `CC(C)N1CCC(CNC(=O)N2CCN(c3ccc(F)cc3)c3ccccc32)CC1` [Compound 63, 4-(4-fluorophenyl)-N-((1-isopropylpiperidin-4-yl)methyl)-3,4-dihydroquinoxaline-1(2H)-carboxamide] as the compound, how does the inhibition at 10 µM read?
**A.** The inhibition at 10 µM was 30 to 50%.

**Q.** How did the inhibition at 10 µM turn out when `CN1CCC(NC(=O)N2CCN(c3ccc(F)cc3)c3cc(F)ccc32)CC1` [Compound 30, 6-fluoro-4-(4-fluorophenyl)-N-(1-methylpiperidin-4-yl)-3,4-dihydroquinoxaline-1(2H)-carboxamide] was run?
**A.** Its inhibition at 10 µM is 50 to 70%.

**Q.** For `CC(C)N1CCC[C@@H]1CNC(=O)N1CCN(c2ccc(F)cc2)c2cc(F)ccc21` [Compound 23, (R)-6-fluoro-4-(4-fluorophenyl)-N-((1-isopropylpyrrolidin-2-yl)methyl)-3,4-dihydroquinoxaline-1(2H)-carboxamide], which inhibition at 10 µM is on record?
**A.** The inhibition at 10 µM was ≥ 70%.

**Q.** With `O=C(NCC1CCNCC1)N1CCN(C(=O)c2ccccc2)c2ccccc21` [Compound 114, 4-benzoyl-N-(piperidin-4-ylmethyl)-3,4-dihydroquinoxaline-1(2H)-carboxamide] as the compound, how does the inhibition at 10 µM read?
**A.** Its inhibition at 10 µM is 10 to 30%.

**Q.** How did the inhibition at 10 µM turn out when `CC(C)N[C@H]1CCN(C(=O)N2CCN(c3ccc(F)cc3)c3cc(F)ccc32)C1` [Compound 14, (S)-(6-fluoro-4-(4-fluorophenyl)-3,4-dihydroquinoxalin-1(2H)-yl)(3-(isopropylamino)pyrrolidin-1-yl)methanone] was run?
**A.** The inhibition at 10 µM was 30 to 50%.

**Q.** `O=C(NCC1CC1)N1CCN(c2ccc(F)cc2)c2cc(F)ccc21` [Compound 28, N-(cyclopropylmethyl)-6-fluoro-4-(4-fluorophenyl)-3,4-dihydroquinoxaline-1(2H)-carboxamide] was tested. Which inhibition at 10 µM did it give?
**A.** The inhibition at 10 µM was 10 to 30%.

**Q.** For `O=C(N[C@@H]1CCOC1)N1CCN(Cc2ccccn2)c2ccccc21` [Compound 98, (R)-4-(pyridin-2-ylmethyl)-N-(tetrahydrofuran-3-yl)-3,4-dihydroquinoxaline-1(2H)-carboxamide], which inhibition at 10 µM is on record?
**A.** The inhibition at 10 µM was 30 to 50%.

**Q.** How did the inhibition at 10 µM turn out when `O=C(NCc1c[nH]cn1)N1CCN(c2ccc(F)cc2)c2cc(F)ccc21` [Compound 37, N-((1H-imidazol-4-)methyl)-6-fluoro-4-(4-fluorophenyl)-3,4-dihydroquinoxaline-1(2H)-carboxamide] was run?
**A.** Its inhibition at 10 µM is 30 to 50%.

**Q.** For `O=C(NC[C@H]1CCCN1)N1CCN(c2ccccn2)c2ccccc21` [Compound 72, (R)-4-(pyridin-2-yl)-N-(pyrrolidin-2-ylmethyl)-3,4-dihydroquinoxaline-1(2H)-carboxamide], which inhibition at 10 µM is on record?
**A.** Its inhibition at 10 µM is 30 to 50%.

**Q.** Which inhibition at 10 µM does the source give for `COC1CCN(C(=O)N2CCN(c3ccc(F)cc3)c3cc(F)ccc32)C1` (stereo not drawn) [Compound 40, (6-fluoro-4-(4-fluorophenyl)-3,4-dihydroquinoxalin-1(2H)-yl)(3-methoxypyrrolidin-1-yl)methanone] here?
**A.** The inhibition at 10 µM was 10 to 30%.
